Reference: PMC7530112 (European journal of medicinal chemistry, 2020)
“And” between values parts separate entries of the source, which are not always exact repeats. Equal entries are not always repeated.

What was measured:
[1] = Microsomal stability assay, human liver microsomes; conditions: without Cobi
[2] = mouse, microsomes
[3] = human, microsomes
[4] = test system: HIV-1NL4-3; experiment: Anti-HIV-1 assay in TZM-GFP cells; conditions: for Inhibition% at 2 μM: 2 μM compound; for Inhibition% at 20 μM: 20 μM compound
[5] = HLMs; cited from earlier work

| Compound | fold improved half-life over PF74 in HLMs [1] | Phase I metabolic stability t1/2, MLM [2] | Phase I metabolic stability t1/2, HLM [3] | Inhibition% at 2 μM [4] | Inhibition% at 20 μM [4] | half-life (t1/2) in human liver microsomes [5] |
| --- | --- | --- | --- | --- | --- | --- |
| (2S)-N-(3-Chlorophenyl)-2-(2-(4,7-dimethyl-2-oxoindolin-3-yl)acetamido)-N-methyl-3-phenylpropanamide [Compound 24] | 7 to 10 fold and 10 fold | 1.4 min | 6.7 min |  |  |  |
| CN(C(=O)[C@H](Cc1ccccc1)NC(=O)Cc1ccc2ccccc2c1)c1ccc(Cl)cc1 [Compound 27, (S)-N-(4-Chlorophenyl)-N-methyl-2-(2-(naphthalen-2-yl)acetamido)-3-phenylpropanamide] |  | 1.4 min | 2.7 min | 95% | 100% |  |
| (S)-N-Methyl-2-(2-(2-methyl-1H-indol-3-yl)acetamido)-N,3-diphenylpropanamide [PF74, reference compound] |  | 0.6 min |  | 91% | 98% | less than 1 min |
| CN(C(=O)C(Cc1ccccc1)NC(=O)CN1C(=O)NC2(CCCCC2)C1=O)c1ccc(Cl)cc1 (stereo not drawn) [Compound 50, N-(4-Chlorophenyl)-2-(2-(2,4-dioxo-1,3-diazaspiro[4.5]decan-3-yl)acetamido)-N-methyl-3-phenylpropanamide] |  | 1.1 min | 2.5 min |  | −/96% |  |
| (S)-N-(4-Chlorophenyl)-N-methyl-2-(2-(naphthalen-1-yl)acetamido)-3-phenylpropanamide [Compound 33] |  | 0.6 min | 1.1 min | 98% | 100% |  |
